Data published in the supplement of paper PMC10883282.

Columns and labels:
Assay in all cases: relative viability vs DMSO control (72 h) (fraction); higher = more viable cells
[1] = system: SK-LMS-1
Outline: (§1)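 ATPLite readings, expressed as percent growth and averaged over up to triplicate wells, provided relative viability. Before reading, sarcoma cell lines seeded in 384-well plates to reach 80–90% confluence received 2.5 µl of serially diluted compound after 24 h, from source plates of 10 mM to 0.0002 mM. Plates were held 72 h at 37 °C, 5% CO2, with 0.1% DMSO as vehicle and a 5 µM positive control. The data were rescaled to 1 for full and 0 for none.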

[2] = system: SW1353
Outline: as §1

[3] = system: SW684
Outline: as §1

[4] = system: SW872
Outline: as §1

[5] = system: SYO-1
Outline: as §1

[6] = system: VA-ES-BJ
Outline: as §1

COC(=O)N[C@@H](C)CNc1nccc(-c2cn(C(C)C)nc2-c2cc(Cl)cc(NS(C)(=O)=O)c2F)n1 [Encorafenib]
relative viability
Conditions	[1]	[2]	[3]	[4]	[5]	[6]
0.00017 µM	1.01	1.06	0.979	0.96	0.988	1.02
0.00051 µM	1.02	1.09	1	0.952	0.992	1.04
0.00152 µM	0.9804	1.1	1.04	0.96	0.972	1.04
0.00457 µM	1.017	1.08	1.04	0.902	0.985	1.03
0.01372 µM	0.953	1.086	1.04	0.729	1.003	1.03
0.04115 µM	0.933	1.08	1.04	0.599	0.997	1.03
0.1235 µM	0.9782	1.07	1.05	0.555	1.018	1
0.3704 µM	0.894	1.1	1.01	0.524	1.02	0.989
1.111 µM	0.7389	0.966	0.943	0.459	0.988	0.852
3.333 µM	0.49	0.767	0.824	0.335	0.877	0.637
10 µM	0.441	0.739	0.834	0.295	0.818	0.659
